Laboratory results from patent US10947271B2, “Antibacterial agents” (THE UNIVERSITY OF QUEENSLAND, priority 2014, dated 2021).

Key:
MRSA (Strain ATCC 43300) = experiment: Murine thigh infection model (MRSA); assay type: in vivo, Staphylococcus aureus; details: neutropenic CD1 mice
Method: Summary: Adult (8 week old) female CD1 mice were made neutropenic by two injections of cyclophosphamide 4 days and 1 day prior to infection. An inoculum of 10^5 cfu MRSA (Strain ATCC 43300) was injected intramuscularly into both left and right thighs of all mice. […] After an additional two hours, a 50 μL sample of blood was obtained from the tail bleed to analyse for presence of antibiotic compound. […] Thighs were then removed, weighed and homogenised in a fixed volume of saline. The homogenate solution was filtered, diluted and seeded onto agar plates, which were incubated overnight at 37° C. Colony counts were used to establish the cfu in the thigh homogenates, the cfu/thigh, and the cfu/g of thigh.
Compound preparation: Cyclophosphamide monohydrate (Sigma) was dissolved in sterile saline to a concentration of 30 mg/mL. Likewise, vancomycin (Sigma) and MCC compounds were also dissolved in sterile saline to a final concentration of 60 mg/mL and 18.5 mg/mL respectively. All compounds were prepared in low binding Eppendorf tubes and kept at −20° C. until used.
In vivo experimental assay: Eight week old female outbred CD1 mice (UQBR-AIBN) were rendered neutropenic by injecting two doses of cyclophosphamide intraperitoneally 4 days (150 mg/kg) and 1 day (100 mg/kg) prior to experimental infection. The infection model using MRSA was established by intramuscular injection of 50 μL of early-log-phase bacterial MRSA suspension (around 2×10^6 cfu/mL) in saline into both thigh muscles. […] Untreated animals received equivalent volume of saline (Baxter). The mice were monitored for signs of normal behaviour (i.e. grooming, eating, drinking, sleeping, and alertness) during and following dosing. Two hours after saline/antibiotic treatment, 0.05 mL of blood was collected by tail incision. 24 hours after MRSA infection, mice were euthanized and blood collected from the heart by cardiac puncture (saline group) or by tail incision (Vancomycin and MCC compound treated groups) as outlined in FIG. 1. For each mouse, both thighs were collected aseptically by cutting the leg at the hip and knee, placed in 10 mL of cold sterile saline and the individual weight of each thigh recorded.
Preparation of injectable MRSA solution: An MRSA subculture bacterial isolate (ATCC43300) was taken from the storage at −80° C. and freshly seeded on agar plates for overnight (O/N) growth. From the O/N culture preparation, a single colony was diluted into 10-12 mL of Mueller Hinton broth (MHB) and incubated O/N at 37° C. A log-phase subculture was obtained by adding 100 μL of O/N subculture in 10 mL MHB and incubated for a further 2-3 hours. Finally, the OD600 value of the bacterial suspension was determined and the colony forming units per millilitre (cfu/mL) extrapolated. A full dilution of the bacterial cell suspension in saline was achieved by washing (3220×g for 10 min) and the OD600 in saline determined. The suspension was then diluted out accordingly in order to achieve a 2×10^6 cfu/mL solution (10^5 cfu in 50 μL/thigh).
Thus, 10 μL of the injectable MRSA suspension was diluted down to 10-1000 fold, each dilution plated out onto agar plates and incubated at 37° C. for 24 hours.
Thigh homogenates and CFU determination: Thighs were homogenized at 20,000 rpm for 15 seconds using a Polytron MR2500E using a […] probe (all Kinematica).

[1] = tested on: Staphylococcus aureus MRSA ATCC 43300; experiment: MIC assay, S. aureus MRSA ATCC 43300; assay type: cell-based; details: 24 h incubation, visual reading
Summary of the method: (§1)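 Twofold broth microdilution in Mueller Hinton broth; compounds tested from 8 μg/ml to 0.003 μg/ml. Mid-log cultures were inoculated at 5×10e5 CFU/mL and incubated 24 h at 37° C. MIC was the lowest concentration with no visible growth.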

[2] = tested on: Enterococcus faecium MDR Van A ATCC 51559; experiment: MIC assay, E. faecium MDR Van A ATCC 51559; assay type: cell-based; details: 24 h incubation, visual reading
Summary of the method: as §1

[3] = tested on: Streptococcus pneumoniae MDR ATCC 700677; experiment: MIC assay, S. pneumoniae MDR ATCC 700677; assay type: cell-based; details: 24 h incubation, visual reading
Summary of the method: as §1

[4] = single subcutaneous dose 10 mg/kg
[5] = single subcutaneous dose 25 mg/kg

| SMILES | Average Reduction log Δcfu MRSA/thigh after 26 h (MRSA (Strain ATCC 43300); single subcutaneous dose 50 mg/kg) | Minimum Inhibitory Concentration (MIC) Staph. aureus ATCC43300 [1] | Average Reduction log Δcfu MRSA/thigh after 26 h (MRSA (Strain ATCC 43300); single subcutaneous dose 5 mg/kg) | Average Reduction log Δcfu MRSA/thigh after 26 h (MRSA (Strain ATCC 43300); [4]) | Average Reduction log Δcfu MRSA/thigh after 26 h (MRSA (Strain ATCC 43300); [5]) | Minimum Inhibitory Concentration (MIC) E. faecium ATCC51559 [2] | Minimum Inhibitory Concentration (MIC) S. pneumoniae ATCC 700677 [3] |
| --- | --- | --- | --- | --- | --- | --- | --- |
| CCCCCCCCCC(=O)N[C@@H](Cc1c[nH]c2ccccc12)C(=O)N[C@H](CC(N)=O)C(=O)N[C@@H](CC(=O)O)C(=O)N[C@@H]1C(=O)NCC(=O)N[C@@H](CCCN)C(=O)N[C@@H](CC(=O)O)C(=O)N[C@H](C)C(=O)N[C@@H](CC(=O)O)C(=O)NCC(=O)N[C@H](CO)C(=O)N[C@@H]([C@H](C)CC(=O)O)C(=O)N[C@@H](CC(=O)c2ccccc2N)C(=O)O[C@@H]1C [Daptomycin, reference compound] | xxx (xxx = 4-6) | – | – | – | – | – | – |
| CCCCCCCCCCC(=O)N[C@@H](CCCCN)C(=O)N[C@@H](CCCCN)C(=O)N[C@@H](CCCCNC(=O)[C@H]1NC(=O)[C@H]2NC(=O)[C@H](NC(=O)[C@@H]3NC(=O)[C@H](CC(N)=O)NC(=O)[C@H](NC(=O)[C@@H](CC(C)C)NC)[C@H](O)c4ccc(c(Cl)c4)Oc4cc3cc(c4O[C@@H]3O[C@H](CO)[C@@H](O)[C@H](O)[C@H]3O[C@H]3C[C@](C)(N)[C@H](O)[C@H](C)O3)Oc3ccc(cc3Cl)[C@H]2O)c2ccc(O)c(c2)-c2c(O)cc(O)cc21)C(=O)O [MCC_000174] | – | xxxx (xxxx = 0.01-<0.1) | xxx (xxx = 4-6) | xxx (xxx = 4-6) | xxx (xxx = 4-6) | x (x = >4) | xxxx (xxxx = 0.01-<0.1) |
| CNC(=O)[C@H](CCCCNC(=O)[C@H]1NC(=O)[C@H]2NC(=O)[C@H](NC(=O)[C@@H]3NC(=O)[C@H](CC(N)=O)NC(=O)[C@H](NC(=O)[C@@H](CC(C)C)NC)[C@H](O)c4ccc(c(Cl)c4)Oc4cc3cc(c4O[C@@H]3O[C@H](CO)[C@@H](O)[C@H](O)[C@H]3O[C@H]3C[C@](C)(N)[C@H](O)[C@H](C)O3)Oc3ccc(cc3Cl)[C@H]2O)c2ccc(O)c(c2)-c2c(O)cc(O)cc21)NC(=O)[C@H](CCCCN)NC(=O)[C@H](CCCCN)NC(=O)[C@H](CCCCNC(=O)c1ccc(Oc2ccccc2)cc1)NC(=O)c1ccc(Oc2ccccc2)cc1 [MCC_000310] | – | xxxxx (xxxxx = <0.01) | – | – | x (x = 0-2) | xxx (xxx = 0.1-<1) | xxxxx (xxxxx = <0.01) |
| CCCCCCCCCCC(=O)N[C@@H](CCCCN)C(=O)N[C@@H](CCCCN)C(=O)NCCCNC(=O)[C@H]1NC(=O)[C@H]2NC(=O)[C@H](NC(=O)[C@@H]3NC(=O)[C@H](CC(N)=O)NC(=O)[C@H](NC(=O)[C@@H](CC(C)C)NC)[C@H](O)c4ccc(c(Cl)c4)Oc4cc3cc(c4O[C@@H]3O[C@H](CO)[C@@H](O)[C@H](O)[C@H]3O[C@H]3C[C@](C)(N)[C@H](O)[C@H](C)O3)Oc3ccc(cc3Cl)[C@H]2O)c2ccc(O)c(c2)-c2c(O)cc(O)cc21 [MCC_000344] | – | xxxx (xxxx = 0.01-<0.1) | – | – | xxx (xxx = 4-6) | xx (xx = 1-4) | xxxx (xxxx = 0.01-<0.1) |
| CCCCCCCCCCCC(=O)N[C@@H](CCCCN)C(=O)N[C@@H](CCCCN)C(=O)N[C@@H](CCCCNC(=O)[C@H]1NC(=O)[C@H]2NC(=O)[C@H](NC(=O)[C@@H]3NC(=O)[C@H](CC(N)=O)NC(=O)[C@H](NC(=O)[C@@H](CC(C)C)NC)[C@H](O)c4ccc(c(Cl)c4)Oc4cc3cc(c4O[C@@H]3O[C@H](CO)[C@@H](O)[C@H](O)[C@H]3O[C@H]3C[C@](C)(N)[C@H](O)[C@H](C)O3)Oc3ccc(cc3Cl)[C@H]2O)c2ccc(O)c(c2)-c2c(O)cc(O)cc21)C(=O)O [MCC_000347] | – | xxxxx (xxxxx = <0.01) | – | xxxx (xxxx = >6) | – | xx (xx = 1-4) | xxxx (xxxx = 0.01-<0.1) |
| CCCCCCCCCCC(=O)NC(CCCCN)C(=O)NC(CCCCN)C(=O)NC(CCCCNC(=O)C1NC(=O)C2NC(=O)C(NC(=O)C3NC(=O)C(CC(N)=O)NC(=O)C(NC(=O)C(CC(C)C)NC)C(O)c4ccc(c(Cl)c4)Oc4cc3cc(c4OC3OC(CO)C(O)C(O)C3OC3CC(C)(N)C(O)C(C)O3)Oc3ccc(cc3Cl)C2O)c2ccc(O)c(c2)-c2c(O)cc(O)cc21)C(N)=O (stereo not shown) [MCC_000455] | – | xxxxx (xxxxx = <0.01) | – | – | xxx (xxx = 4-6) | xxx (xxx = 0.1-<1) | xxxxx (xxxxx = <0.01) |
| CCCCCCCCCC(=O)N[C@@H](CCCCN)C(=O)N[C@@H](CCCCN)C(=O)NCCCNC(=O)[C@H]1NC(=O)[C@H]2NC(=O)[C@H](NC(=O)[C@@H]3NC(=O)[C@H](CC(N)=O)NC(=O)[C@H](NC(=O)[C@@H](CC(C)C)NC)[C@H](O)c4ccc(c(Cl)c4)Oc4cc3cc(c4O[C@@H]3O[C@H](CO)[C@@H](O)[C@H](O)[C@H]3O[C@H]3C[C@](C)(N)[C@H](O)[C@H](C)O3)Oc3ccc(cc3Cl)[C@H]2O)c2ccc(O)c(c2)-c2c(O)cc(O)cc21 [MCC_005084] | – | xxxx (xxxx = 0.01-<0.1) | – | xxx (xxx = 4-6) | – | xx (xx = 1-4) | xxxx (xxxx = 0.01-<0.1) |
| CCCCCCCCCC(=O)N[C@@H](CCCCN)C(=O)NCCNC(=O)[C@H]1NC(=O)[C@H]2NC(=O)[C@H](NC(=O)[C@@H]3NC(=O)[C@H](CC(N)=O)NC(=O)[C@H](NC(=O)[C@@H](CC(C)C)NC)[C@H](O)c4ccc(c(Cl)c4)Oc4cc3cc(c4O[C@@H]3O[C@H](CO)[C@@H](O)[C@H](O)[C@H]3O[C@H]3C[C@](C)(N)[C@H](O)[C@H](C)O3)Oc3ccc(cc3Cl)[C@H]2O)c2ccc(O)c(c2)-c2c(O)cc(O)cc21 [MCC_005162] | – | xxxx (xxxx = 0.01-<0.1) | – | xxx (xxx = 4-6) | – | xx (xx = 1-4) | xxxx (xxxx = 0.01-<0.1) |
| CCCCCCCCC(=O)N[C@@H](CCCCN)C(=O)NCCCNC(=O)[C@H]1NC(=O)[C@H]2NC(=O)[C@H](NC(=O)[C@@H]3NC(=O)[C@H](CC(N)=O)NC(=O)[C@H](NC(=O)[C@@H](CC(C)C)NC)[C@H](O)c4ccc(c(Cl)c4)Oc4cc3cc(c4O[C@@H]3O[C@H](CO)[C@@H](O)[C@H](O)[C@H]3O[C@H]3C[C@](C)(N)[C@H](O)[C@H](C)O3)Oc3ccc(cc3Cl)[C@H]2O)c2ccc(O)c(c2)-c2c(O)cc(O)cc21 [MCC_005203] | – | – | – | xxx (xxx = 4-6) | – | – | – |
| CCCCCCCCCC(=O)N[C@@H](CCCNC(=N)N)C(=O)N[C@@H](CCCCNC(=O)[C@H]1NC(=O)[C@H]2NC(=O)[C@H](NC(=O)[C@@H]3NC(=O)[C@H](CC(N)=O)NC(=O)[C@H](NC(=O)[C@@H](CC(C)C)NC)[C@H](O)c4ccc(c(Cl)c4)Oc4cc3cc(c4O[C@@H]3O[C@H](CO)[C@@H](O)[C@H](O)[C@H]3O[C@H]3C[C@](C)(N)[C@H](O)[C@H](C)O3)Oc3ccc(cc3Cl)[C@H]2O)c2ccc(O)c(c2)-c2c(O)cc(O)cc21)C(=O)O [MCC_005530] | – | – | – | xxx (xxx = 4-6) | – | – | – |
| CCCCCCCCC(=O)NC(CCCNC(=N)N)C(=O)NCCCNC(=O)C1NC(=O)C2NC(=O)C(NC(=O)C3NC(=O)C(CC(N)=O)NC(=O)C(NC(=O)C(CC(C)C)NC)C(O)c4ccc(c(Cl)c4)Oc4cc3cc(c4OC3OC(CO)C(O)C(O)C3OC3CC(C)(N)C(O)C(C)O3)Oc3ccc(cc3Cl)C2O)c2ccc(O)c(c2)-c2c(O)cc(O)cc21 (stereo not shown) [MCC_007336] | – | – | – | xxxx (xxxx = >6) | – | – | – |
